{
  "source": "paper PMC10343464",
  "about": "“Identification and characterization of a novel aminoglycoside O-nucleotidyltransferase ANT(6)-If from Paenibacillus thiaminolyticus PATH554” (Frontiers in Microbiology, 2023)",
  "system": "T1, ANT(6)-If",
  "T1 construct": "full-length ORF (855 bp, TTG start codon); 284 residues; His6 tag removed with thrombin; likely homodimer by clear-native PAGE",
  "assay": "coupled UDP-glucose pyrophosphorylase / phosphoglucomutase / G6PDH assay, NADPH at […] nm",
  "format": "biochemical, Paenibacillus thiaminolyticus",
  "conditions": "1 mM ATP, 10 mM MgCl2, 50 mM HEPES pH 7.5; temperature not given",
  "data": [
    {"smiles": "CN[C@@H]1[C@H](O[C@H]2[C@H](O[C@H]3[C@H](O)[C@@H](O)[C@H](N=C(N)N)[C@@H](O)[C@@H]3N=C(N)N)O[C@@H](C)[C@]2(O)C=O)O[C@@H](CO)[C@H](O)[C@H]1O", "note": "[streptomycin]", "values": [
      {"measurement": "Km", "value": 12.4, "unit": "µM"}
    ]}
  ]
}
